{
  "source": "patent US5231031A",
  "about": "“Method for assessing risk of diabetes-associated pathologic conditions and efficacy of therapies for such conditions” (priority 1990, dated 1993)",
  "key": {"[1]": {"settings": "compared with F3P; cited from earlier work"}, "[2]": {"assay": "pKa of the phosphorylated metabolites (Table 1)", "type": "physicochemical", "description": "While the toxic potential and precise structures of compounds a and b are not known, they have many characteristics in common with S3P and F3P, such as unique chemical shifts, large ^1 H-^31 P spin-spin coupling constants and unusually low pKa' values (see Table 1). In these properties, Compounds a and b differ substantially from other phosphomonoesters and thus appear to belong to the same class of compounds as S3P and F3P. […] There is a good correlation between these elevated concentrations and the presence of clinical symptoms of diabetic complications such as retinopathy, peripheral neuropathy and peripheral vascular disease. This correlation is especially striking when one compares the sum of the concentrations of compounds a and b with the concentration of S3P ([a]+[b]/[S3P]).\nCompound (at pH 7.5) (Hz) pKa"}, "[3]": {"tested_on": "erythrocytes", "assay": "Effect of fructose-3-phosphate on red cell viability, 31P NMR", "type": "cell-based, human", "method": "FIGS. 3A-C are ^31 P NMR spectra showing the effect of fructose-3-phosphate on red cell viability.\nSpectra were collected in 250-5000 scans using a 60° pulse and a 1.5 sec. repetition rate.\nFIGS. 3A-C illustrates the results of an experiment which confirms that this indeed is the case for erythrocytes. […] This phenomenon indicates very strongly that F3P is indeed a toxic agent which, at sufficiently high concentration, leads to an irreversible decline in cell function and ultimately to cell death."}, "[4]": {"assay": "Glycosylating activity and lability", "description": "A difficult problem encountered in the medical treatment of diabetes has been the inability to identify those diabetic patients who are at risk of experiencing some diabetes-associated pathologic condition, so as to effect timely intervention. […] Kato, M., Hayase, F., Shin, D. B., Oimomi, M. and Baba, S. (1989), The Maillard Reaction in Aging, Diabetes and Nutrition, J. W. Baynes and V. M. Monnier, eds, at 69-84 (Liss, New York, 1989)."}, "[5]": {"settings": "erythrocytes loaded with F3P, then 12 hrs. in fructose-free medium"}},
  "data": [
    {"smiles": "O=CC(=O)C[C@H](O)[C@H](O)CO", "note": "[Compound 3dG, 3-deoxyglucosone]", "values": [
      {"measurement": "glycosylating and cross-linking potency", "setting": "[1]", "result": "even more potent Maillard glycosylating and cross-linking agent"}
    ]},
    {"smiles": "O=P(O)(O)O[C@@H]([C@H](O)[C@H](O)CO)[C@@H](O)CO", "note": "[Compound S3P, sorbitol-3-phosphate]", "values": [
      {"measurement": "pKa", "setting": "[2]", "result": 5.4}
    ]},
    {"smiles": "O=C(CO)[C@@H](OP(=O)(O)O)[C@H](O)[C@H](O)CO", "note": "[Compound F3P, fructose-3-phosphate]", "values": [
      {"measurement": "pKa", "setting": "[2]", "result": 5.6},
      {"measurement": "toxicity to erythrocytes", "setting": "[3]; at sufficiently high concentration", "result": "toxic agent"},
      {"measurement": "concentration of ATP", "setting": "[3]; [5]", "result": "dramatic decrease"},
      {"measurement": "hemolysis of the cells", "setting": "[3]; [5]", "result": "extensive hemolysis"},
      {"measurement": "glycosylating potency", "setting": "[4]", "result": "relatively potent glycosylating agent"},
      {"measurement": "lability", "setting": "[4]; especially in the presence of amines, breaks down to 3-deoxyglucosone", "result": "quite labile"}
    ]}
  ]
}
